Like-named read-outs stand apart in the source and are kept apart here.

We go through 5 compounds from patent US7320967B2, “Cosmetic composition, method of cosmetic treatment and preparation of a composition for promoting the growth and/or preventing or delaying the loss of hair” (L'Oreal, priority 2002, dated 2008).

The target of test [1] is T1, 15-PGDH (Homo sapiens, UniProt P15428).
T1 construct: GST (glutathione S-transferase, pGEX 4T3) (N, cleaved yes); made in house; host or cells: E. coli BL21DE3plys
T1 sequence (P15428 1-266): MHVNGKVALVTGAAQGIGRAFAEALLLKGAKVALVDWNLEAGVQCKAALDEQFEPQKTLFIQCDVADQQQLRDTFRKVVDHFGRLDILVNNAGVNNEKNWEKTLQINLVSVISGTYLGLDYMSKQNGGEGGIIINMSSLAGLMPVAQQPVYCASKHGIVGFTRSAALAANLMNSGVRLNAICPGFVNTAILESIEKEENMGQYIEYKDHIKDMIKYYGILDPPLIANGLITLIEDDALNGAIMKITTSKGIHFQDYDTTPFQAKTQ
In words: 15-PGDH test (maximum reaction rate, optical density at 340 nm). In kind it is biochemical. As to the method:
For that, the following are for example brought into contact: the enzyme 15-PGDH at a final concentration of 7×10^−3 mg/ml, its cosubstrate (β-NAD) and a substrate (PGE2) at the concentrations corresponding to the conditions conventionally used for this test as described for example by Cho and Tai (Inhibition of NAD-dependent 15-hydroxyprostaglandin dehydrogenase (15-PGDH) by cyclooxygenase inhibitors and chemopreventive agents. Prostaglandins, Leukotrienes and Essential Fatty Acids, 2002, 67(6): 461-465), for example 1.5 mM β-NAD and 50 μM prostaglandin E2. The rate of the reaction is measured at 37° C. for 1 minute. The same reaction is carried out, but adding the test compound to the medium at the start of the reaction. The maximum enzyme reaction rate per unit of time (Vmax) measured in the presence of the compound is compared to that of the control with no compound, and the percentage inhibition [100−(Vmax assay×100)/Vmax control] is determined.
The enzyme obtained is at the concentration of 0.3 mg/ml and is blocked at −80° C. This suspension is thawed and stored on ice.
Preparation of a 100 mM Tris buffer pH=7.4 containing 0.1 mM dithiothreitol (D5545, Sigma-Aldrich, L'isle D'Abeau Chesne, BP 701, 38297, Saint Quentin Fallavier), 1.5 mM β-NAD (N6522, Sigma-Aldrich, L'isle D'Abeau Chesne, BP 701, 38297, Saint Quentin Fallavier), 50 μM Prostaglandin E2 (P4172, Sigma-Aldrich, L'isle D'Abeau Chesne, BP 701, 38297, Saint Quentin Fallavier).
0.965 ml of this buffer (previously heated to 37° C.) is introduced into a spectrophotometer cuvette (Perkin-Elmer, Lambda 2) thermostated at 37° C., whose wavelength for measurement is set at 340 nm. 0.035 ml of enzymatic suspension at 37° C. are introduced into the cuvette concomitantly with the recording (increase in the optical density at 340 nm).
(§1) The maximum reaction rate is recorded.
(§2) The test values (molecules) are compared with the control value (with no molecule), the results are expressed as % of the control value.

Test [2] concerns the target T2, PGFS (Homo sapiens, UniProt P42330, H5Q).
T2 construct: GST (glutathione S-transferase, pGEX 2T) (N, cleaved yes); made in house; host or cells: E. coli BL21DE3
T2 sequence (P42330 1-323 H5Q): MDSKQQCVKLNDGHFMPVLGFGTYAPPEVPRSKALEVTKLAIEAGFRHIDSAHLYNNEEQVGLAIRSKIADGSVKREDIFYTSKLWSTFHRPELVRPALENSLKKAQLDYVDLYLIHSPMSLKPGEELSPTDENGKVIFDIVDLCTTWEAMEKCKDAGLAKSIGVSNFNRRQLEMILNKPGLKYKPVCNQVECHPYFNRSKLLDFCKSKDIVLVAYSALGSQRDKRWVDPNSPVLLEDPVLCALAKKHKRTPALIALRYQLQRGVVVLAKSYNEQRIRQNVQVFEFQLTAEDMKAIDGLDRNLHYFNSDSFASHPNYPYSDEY
As to the kind of experiment: PGFS test (maximum reaction rate, optical density at 340 nm). In kind it is biochemical. The following applies: for IC50: protocol of Example 3. As to the method:
The compounds noted as 15-PGDH inhibitors are then tested for their capacity to inhibit PGF synthase. For that, the following are for example brought into contact: the enzyme PGFS at a final concentration of 25×10^−3 mg/l, its cosubstrate (β-NADPH2) and a substrate (for example phenanthrenequinone) at the concentrations conventionally used for this test as described for example by Suzuki et al. (cDNA cloning, expression and mutagenesis study of liver-type prostaglandin F synthase. J Biol Chem, 1999, 274(1): 241-248), that is to say 100 μM β-NADPH2 and 20 μM phenanthrenequinone. The maximum reaction rate is measured per unit of time at 37° C. The same reaction is carried out but adding the test compound to the medium at the start of the reaction. The maximum enzyme reaction rate with the compound is compared to that of the control with no compound, and the percentage inhibition [100−(Vmax assay×100)/Vmax control] is determined.
The enzyme obtained is at a concentration of 0.5 mg/ml and blocked at −80° C. This suspension is thawed and stored on ice.
Preparation in a brown flask (protection from light) of a 100 mM Tris buffer pH=6.5 containing 20 μM 9,10-phenanthrenequinone* (P2896, Sigma-Aldrich, L'isle D'Abeau Chesne, BP 701, 38297, Saint Quentin Fallavier) and 100 μM β-NADPH (N1630, Sigma-Aldrich, L'isle D'Abeau Chesne, BP 701, 38297, Saint Quentin Fallavier). A stock solution having a titre of 1 mM is prepared in absolute ethanol heated to 40° C., the flask is placed in an ultrasonic tank in order to facilitate the solubilization of the product.
0.950 ml of this buffer (previously heated to 37° C.) is introduced into the cuvette of a spectrophotometer (Perkin-Elmer, Lambda 2) thermostated at 37° C. whose wavelength for measurement is set at 340 nm. 0.05 ml of enzymatic suspension at 37° C. is introduced into the cuvette concomitantly with the recording (reduction in the optical density at 340 nm).
as §1, §2

Test [3] relates to PGF2α secreted by U937 cells. In words: Cellular model: PGF2α secreted by PMA-differentiated, LPS-stimulated U937 cells. In kind it is cell-based. The following applies: 5 μM; U937 + 10 nM PMA, then LPS, 6 h. As to the method:
This makes it possible to evaluate the efficacy of a selective 15-PGDH inhibitor on the protection of prostaglandins in a complex biological system producing the different types of enzyme involved in the metabolism of these molecules. For example, a culture of promonocytes is used, these being precursors of macrophages under certain conditions, a model which is very widespread for studying the metabolism of prostaglandins.
Indeed, the phorbol esters (10 nM PMA) cause within 24 h 00 min the differentiation of the promonocyte line U937 into macrophages; this differentiation is accompanied by the induction of 15-PGDH. (Tong and Tai, Biochim Biophys Acta, 2000; 1497: 61-68).
Moreover, stimulation of these macrophages by LPS (lipopolysaccharide extracted from the bacterial wall) induces (at 100 ng/ml) in 6 h 00 min PGHS-2 (or COX-2), an enzyme responsible (in the same way as COX-1) for the synthesis of PGH2, a precursor (inter alia) via PGFS, of PGF2α (Arias-Negrete et al., 1995. Biochem Biophys Res Commun, 208(2), 582-589).
In a 1st stage, macrophage precursors are cultured in a suitable medium, in the presence of a compound stimulating their differentiation and the induction of 15-PGDH, and then the production of prostaglandins by these cells is stimulated, for example by LPSs in the form of an extract or by purified LPSs; this 2nd stage is performed in the presence or otherwise of the compound to be tested. The concentrations of prostaglandins, in particular of PGF2α, obtained in the presence of the 15-PGDH inhibiting compound to be tested are compared to that of the control containing only the 15-PGDH inducer, it being possible to carry out this measurement by any method known to a person skilled in the art, in particular by immunoenzymatic assay. […]
All the wells will contain the same final quantity of DMSO.
Immediate evaluation of the quantity of PGF2α secreted by the cells (50 μl) under different conditions (molecules or controls) using an immunoenzymatic assay kit (Cayman ref. 516011). […]

Where [4] appears, read: protocol of Example 3, read-out: Inhibition of 15-PGDH at 50 μM.

What is called inhibition is the relative decrease from the control value, in per cent. One may read the IC50 as the concentration needed to halve the response being measured. Consider `O=C(Cc1nnn(-c2ccccc2)n1)c1ccccc1` [Compound 1, 1-phenyl-2-(2-phenyl-2H-tetrazol-5-yl)ethanone], for which the inhibition at 50 µM in test [1] (setting [4]) amounted to 70%. The compound also showed an IC50 in test [2] above 75 µM. The “PGF2α secreted, % of the control (LPS control)” value (shortened to “PGF2α secreted, % of the control”) in test [3] is listed as “+16%”.
For the compound `COc1ccccc1NC(=O)Cn1nnc(-c2ccccc2)n1` [Compound 4, N-(2-methoxyphenyl)-2-(5-phenyl-2H-tetrazol-2-yl)acetamide], the inhibition at 50 µM in test [1] (setting [4]) came to 60%. For the same compound, the IC50 in test [1] (protocol of Example 3) was 55 µM; in test [2] it was above 75 µM. The “PGF2α secreted, % of the control” value in test [3] is listed as “+6%”.
Consider `Cc1ccc(NC(=O)Cn2nnc(-c3cccc(C(F)(F)F)c3)n2)cc1` [Compound R29A, N-(4-methylphenyl)-2-{5-[3-(trifluoromethyl)phenyl]-2H-tetrazol-2-yl}acetamide], for which the IC50 in test [1] (protocol of Example 3) is 30 µM; in test [2] it was above 75 µM. Besides, in test [3], the “PGF2α secreted, % of the control” value was “+46%”.
In the case of `Nc1c(Cl)nc(-c2ccccc2)nc1Cl` [Molecule A, 5-amino-4,6-dichloro-2-phenylpyrimidine], the results for the inhibition at 50 µM in test [1] (read-out: % Inhibition 15-PGDH) and in test [2] were 43% and 5%, respectively.
With `O=C(Nc1ncc2c(n1)CC(c1ccccc1Cl)CC2=O)c1ccccc1` (centres unmarked) [Molecule B, N-[7-(2-Chlorophenyl)-5-oxo-5,6,7,8-tetrahydroquinazolin-2-yl]benzamide], the inhibition at 50 µM in test [1] (read-out: % Inhibition 15-PGDH) worked out at 57%; in test [2], 10%.
